Literature values as cited in patent US12201667B2, “Formulations for treating cramps and spasms” (LYTONE ENTERPRISE, INC., priority 2020, dated 2025).

Conditions: background statement

In the case of `C=C[C@H]1C[N@@]2CC[C@H]1C[C@H]2[C@H](O)c1ccnc2ccc(OC)cc12` [quinine, Quinine], the “reduction of cramp frequency” value is listed as “about a quarter”.
